Test results published in PMC11885506, “Evaluation of a non-animal toolbox informed by adverse outcome pathways for human inhalation safety” (Frontiers in Toxicology, 2025).
“Also recorded” adds a separate entry of the source. Where two headings read alike, the source gives them in different places.

How the values were obtained:
MucilAir™-HF tissues [1] = experiment: Mucin-5AC (Muc5AC) immunohistochemistry, goblet cells, MucilAir-HF model; format: cell-based, human; conditions: for % of Muc5AC area: average ± standard deviation
Method: (§1) Tissues were handled as recommended by manufacturer’s instruction.
The presence of goblet cells was assessed through immunohistochemistry analysis for mucin-5AC protein (Muc5AC) detection. IL-13 and cytomix were used as positive controls (see item 2.5.2 for additional details). On last day of experiment (day 12), cultures (n = 3 tissues/group) were rinsed in PBS and fixed by immersion in 4% formaldehyde for 20 min. Fixed tissues were embedded into paraffin, sectioned, and processed for staining on paraffin sections. The immunostaining of the sections was performed with the Benchmark automated platform (Ventana-Roche, Hoffmann-La Roche Ltd, Basel, Switzerland) and the Autostainer Link 48 (Agilent, Santa Clara, CA. United States) with the detection kit Ultraview DAB (DAB chromogeny, Hoffmann-La Roche Ltd). Sections were pre-treated using heat mediated antigen retrieval with sodium citrate buffer, pH 6, for 20 min. The section was then incubated with recombinant anti-mucin 5AC antibody (ab3649, Abcam) for 1 h at room temperature, followed by biotinylated secondary antibody (Dako) and HRP detection (HRP conjugated ABC system, Vector Laboratories), according to manufacturer’s instruction. The section was then counterstained with hematoxylin (Sigma-Aldrich) and mounted with DPX, a synthetic non-aqueous mounting medium for microscopy. Digital images of the slides were then acquired, and quantitative image analysis performed using Image Pro Plus 6.2 (Media Cybernetics) to quantify the goblet cells on a section. The whole images of stained sections were scanned, and an average 15 images/section were analysed. The results are the ratio between the mucin 5AC stained area and the total surface area of the epithelium on the section.

[2] = tested on: RLE-6TN rat lung epithelial cells; conditions: 0.5 µM; ref Jiao et al., 2017; cited from earlier work
[3] = tested on: monocyte-derived macrophages (MDMs); conditions: 20 µM; ref Zeng et al., 2021; cited from earlier work
MucilAir™-HF tissues [4] = experiment: Cytokine and chemokine measurements (Luminex), MucilAir-HF model; format: cell-based, human; conditions: MucilAir-HF
Method: as §1
Basolateral medium samples of the tissue cultures were collected and stored at −80°C until analysis. The following cytokines/chemokines were quantified using customized Human Luminex® Discovery Assay kits (R&D Systems): chemokine (C-C motif) ligand (CCL) 2, CCL7, CCL26, C-X-C motif chemokine ligand (CXCL) 10, CXCL11, intercellular adhesion molecule-1 (ICAM-1), IL-1α, IL-6, IL-8, matrix metalloproteinase (MMP)-1, MMP-2, MMP-3, MMP-7, MMP-9, osteopontin, interferon (IFN)-γ, IL-1 receptor antagonist (IL-1Ra), urokinase-type plasminogen activator receptor (uPAR), tumour necrosis factor (TNF)-α, urokinase (uPA), serpin E1, tissue inhibitor of metalloproteinase 1 (TIMP-1), and TGF-β1. Samples were measured in technical triplicates according to the manufacturer’s recommendation using a Luminex Bio-Plex® 200 RUO System ([…]).

[5] = tested on: cultured alveolar macrophages and epithelial cells; parameters: method as in JOUNEAU et al., 2011; conditions: 10 µg/mL for 48h, bacteria strain not specified; ref JOUNEAU et al., 2011; cited from earlier work
[6] = tested on: primary human bronchial epithelial cells; parameters: method as in Wu et al., 2010; conditions: 1 μg/mL for 24h, bacteria strain not specified; ref Wu et al., 2010; cited from earlier work
EpiAlveolar™ tissues = experiment: Histology and immunohistochemistry, EpiAlveolar model, Laboratory 2; conditions: Laboratory 2, 12-day period
Method: To evaluate the quality of EpiAlveolar™ tissues over the 12-day experimental period, histological and immunohistochemistry assessments for detection of pan-cytokeratin, vimentin, aquaporin 5, pro-surfactant C, CD68, caspase-3, and/or αSMA were performed by Laboratories 1 and 2.
Tissues were kept in 10% phosphate buffered formalin at 4°C for up to 48 h. Samples were then fixed in 70% ethanol and two strips of membrane were trimmed from each sample, processed, and paraffin-embedded to be cut at 5 µm thick sections and mounted to glass slides. The slides were then dewaxed in xylene, hydrated using graded industrial methylated spirit (70-100%) and stained with H&E for light microscope analysis.
For immunohistochemistry analysis, tissue sections-containing microscope slides were obtained and processed using a Discovery Ultra Staining System (Roche), according to manufacturer’s instructions, except for anti-CD68 staining that was manually performed. The slides were incubated at 60°C for 8 min and then deparaffinized at 69°C for 24 min. After that, slides were incubated with inhibitor CM or peroxidase blocking solution (for anti-CD68 staining) for 8 min at room temperature. The slides were then incubated at room temperature with the following primary monoclonal antibodies, following manufacturer’s instructions: anti-α smooth muscle actin (αSMA) at 1:500 (Leica Microsystems Ltd), anti-CD68 at 1:3000 for macrophages (11192-T24, Sino Biological), anti-pro-surfactant C protein at 1:1000 (AB3786, Sigma-Aldrich), anti-caspase-3 at 1:10000 (AB4051, Abcam), anti-aquaporin 5 (31661, Invitrogen), anti-pan-cytokeratin for epithelial cells (760-2595, Roche), and anti-vimentin for mesenchymal cells (790-2917, Roche). […]
A board-certified pathologist evaluated the changes (epithelial thinning, separation/detachment areas, necrosis, collagen, and presence of apoptotic cells, myofibroblasts, and type II pneumocytes) using a semi-quantitative scoring system (Table 2).

[7] = tested on: airway epithelial cell lines; parameters: method as in Nilsson et al., 2010; conditions: 40 µM for 60 min, corrected and normal cell lines; ref Nilsson et al., 2010; cited from earlier work
[8] = tested on: cystic fibrosis phenotype cells; parameters: method as in Perez et al., 2007; conditions: 20 µM for 3-5 days; ref Perez et al., 2007; cited from earlier work
[9] = tested on: A549 human lung adenocarcinoma cell line; conditions: 0.1-5 µM for 3h; ref Guo et al., 2012; cited from earlier work
[10] = tested on: EpiAirway-100 human upper respiratory tract epithelium model; conditions: 25-125 mM for 24h; ref Balharry et al., 2008; cited from earlier work
[11] = tested on: HBE16 airway epithelial cells; conditions: 20 μM for 12h; ref Li et al., 2010; cited from earlier work
[12] = tested on: primary human nasal epithelial cells; parameters: method as in Uchenna Agu et al., 1999; conditions: ref Uchenna Agu et al., 1999, cited from earlier work
MucilAir™-HF tissues [13] = experiment: Cilia beating frequency (CBF) analysis, MucilAir-HF model
Method: The MucilAir™-HF system (EP11MD) and ready-to-use chemically-defined, serum-free culture medium (EP04AM) were obtained from Epithelix Sàrl (Geneva, Switzerland). Tissues were handled as recommended by manufacturer’s instruction. […] After differentiation for 42 up to 81 days at the air-liquid interface (ALI) under standard culture conditions (37°C ± 1°C in a humidified atmosphere of 5% ± 1% CO2 in air), tissues were washed 3 days before first exposure and each insert was inspected for beating cilia and mucus production. This washing step (one or twice with PBS) were performed to remove accumulated mucus and cell debris to minimize the risk of interference with the toxicity tests. Over 12-day experimental period, washing steps as well as media changes was performed every 2-3 days.
For toxicity testing performed over a 12-day experimental period, tissues were daily exposed to 3 different concentrations of each test material for 30 min or 6 h (for detailed information on each material see Table 1). […] Tissues were exposed by test materials via nebulization, liquid apical application, or liquid basal application. These differences in the exposure type were due to solubility of the test material, route of exposure (inhaled or systemic), or comparison with previous publications. […]

[14] = 30 min/day exposure, day 12, High 1 concentration (third of the tested concentrations)
[15] = 30 min/day exposure, day 12, Low concentration (first of the tested concentrations)
[16] = 30 min/day exposure, day 12, Medium concentration (second of the tested concentrations)
[17] = 6 h/day exposure, day 12, single tested concentration

## C[S+]([O-])CCCCN=C=S (stereo not drawn) [Sulforaphane, R,S-Sulforaphane]
MucilAir™-HF tissues [1]; [14]
  % of Muc5AC area: 5.04 ± 0.71%
MucilAir™-HF tissues [1]; [15]
  % of Muc5AC area: 3.74 ± 0.71%
MucilAir™-HF tissues [1]; [16]
  % of Muc5AC area: 9.38 ± 0.80%
MucilAir™-HF tissues [1]; [17]
  % of Muc5AC area: 2.55 ± 0.62%
[2]
  Protection from cigarette smoke extract-induced oxidative damage: protect from cigarette smoke extract-induced oxidative damage
[3]
  Anti-inflammatory activity: anti-inflammatory activity by suppressing the expression of Toll-like receptors (TLR2 and TLR4)

## Lipopolysaccharide from Pseudomonas aeruginosa 10 [LPS]
MucilAir™-HF tissues [1]; [14]
  % of Muc5AC area: 4.28 ± 0.76%
MucilAir™-HF tissues [1]; [15]
  % of Muc5AC area: 2.87 ± 0.77%
MucilAir™-HF tissues [1]; [16]
  % of Muc5AC area: 4.30 ± 0.90%
MucilAir™-HF tissues [1]; [17]
  % of Muc5AC area: 1.58 ± 0.40%
MucilAir™-HF tissues [4]; 30 min/day exposure
  Cytokines/chemokines modulated (in words): did not promote modulation of the different cytokines/chemokines
MucilAir™-HF tissues [4]; 6 h/day exposure
  Cytokines/chemokines modulated (in words): increased levels of proteins involved in the inflammatory response (e.g., IL-6, IL-8, and TNF-α) and degradation of extracellular matrix/fibrosis (e.g., MMP-3 and uPAR)
[5]
  MMP-9 supernatant levels and mRNA transcripts: significant increase in MMP-9 supernatant levels and mRNA transcripts
[6]
  IL-6 and IL-8 protein and mRNA transcripts levels: significant increase of IL-6 and IL-8 protein and mRNA transcripts levels
EpiAlveolar™ tissues
  Histological changes compared to vehicle and control groups (in words): changes were not observed

## O=C(O)c1ccc(/C=C2\SC(=S)N(c3cccc(C(F)(F)F)c3)C2=O)cc1 [CFTRinh-172]
MucilAir™-HF tissues [1]
  Changes in Muc5AC protein expression (in words): not able to promote any changes; also recorded: did not induce expected increase in mucin secretion or Muc5AC protein expression
MucilAir™-HF tissues [1]; [14]
  % of Muc5AC area: 6.93 ± 0.51%
MucilAir™-HF tissues [1]; [15]
  % of Muc5AC area: 7.15 ± 1.06%
MucilAir™-HF tissues [1]; [16]
  % of Muc5AC area: 11.01 ± 0.81%
[7]
  TEER values: time-dependent increase in TEER values
[8]
  GM-CSF, IL-6 and/or IL-8 secretion levels: no changes in granulocyte/macrophage colony-stimulating factor, IL-6 and/or IL-8 secretion levels

## CN1CCC[C@H]1c1cccnc1 [Nicotine]
MucilAir™-HF tissues [1]; [14]
  % of Muc5AC area: 5.94 ± 1.90%
MucilAir™-HF tissues [1]; [15]
  % of Muc5AC area: 0.89 ± 0.62%
MucilAir™-HF tissues [1]; [16]
  % of Muc5AC area: 3.91 ±0.79%
[9]
  Cytotoxicity (LDH release): did not trigger cytotoxicity
[10]
  TEER values (integrity of the epithelial membrane): biphasic response with a large and significant increase of TEER values at low concentrations followed by a steady decrease at higher concentrations
[11]
  TNF-α, IL-8, IL-6 and MUC5AC supernatant protein and mRNA levels: did not trigger changes in TNF-α, IL-8, IL-6 and MUC5AC supernatant protein and mRNA levels

## Cc1cc(O)ccc1Cl [Chlorocresol, 4-Chloro-3-methylphenol]
MucilAir™-HF tissues [1]; [14]
  % of Muc5AC area: 6.95 ± 0.30%
MucilAir™-HF tissues [1]; [15]
  % of Muc5AC area: 14.47 ± 0.87%
MucilAir™-HF tissues [1]; [16]
  % of Muc5AC area: 8.85 ± 1.77%
[12]; 0.005% w/ v for 1-20 min
  CBF: reversible cilio-inhibitory effects by significantly decreasing CBF
[12]; 0.1% w/v
  CBF: instantaneous and irreversible ciliostasis
MucilAir™-HF tissues [13]
  Tissue functionality (CBF, MCC, mucin secretion) change (in words): not able to induce changes in tissue functionality (e.g. reduced CBF)
